In patent US20050112573A1, “Method of detecting toxic substance” (priority 2001, published 2005):

System: yeast genes (level of expressed mRNA)
Test: DNA chip analysis of expressed mRNA of yeast genes after 2 h culture with a toxic chemical substance
Assay type: cell-based, Saccharomyces cerevisiae S288C
In short: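 S. cerevisiae S288C grown at 25° C in YPD; toxicant added at log phase at growth-inhibitory, non-lethal levels for 2 h, untreated cells as control. Poly(A) mRNA reverse-transcribed with Cy3/Cy5-dUTP, hybridized to whole-genome chip at 65° C >12 h; value is fluorescence ratio versus untreated.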

sodium dodecylbenzosulfonate [(17)]
level of expressed mRNA in the presence of chemical substance/in its absence (gene YAL012W): 0.9 | The level of expressed mRNA in the presence of chemical substance/absence: YAL014C (gene YAL014C): 1.1 | The level of expressed mRNA in the presence of chemical substance/absence: YAL017W (gene YAL017W): 1.0 | The level of expressed mRNA in the presence of chemical substance/absence: YAL018C (gene YAL018C): 0.9 | level of expressed mRNA in the presence of chemical substance/in its absence (gene YAL038W): 1.0 | level of expressed mRNA in the presence of chemical substance/in its absence (gene YAL044C): 1.4 | The level of expressed mRNA in the presence of chemical substance/absence: YAL049C (gene YAL049C): 1.6 | level of expressed mRNA in the presence of chemical substance/in its absence (gene YAL054C): 1.5 | The level of expressed mRNA in the presence of chemical substance/absence: YAR047C (gene YAR047C): 1.7 | The level of expressed mRNA in the presence of chemical substance/absence: YAR064W (gene YAR064W): 0.9 | level of expressed mRNA in the presence of chemical substance/in its absence (gene YAR071W): 0.7 | level of expressed mRNA in the presence of chemical substance/in its absence (gene YBL001C): 1.6 | The level of expressed mRNA in the presence of chemical substance/absence: YBL044W (gene YBL044W): 0.8 | The level of expressed mRNA in the presence of chemical substance/absence: YBL100C (gene YBL100C): 0.8 | The level of expressed mRNA in the presence of chemical substance/absence: YBR012C (gene YBR012C): 1.4 | The level of expressed mRNA in the presence of chemical substance/absence: YBR013C (gene YBR013C): 1.4 | level of expressed mRNA in the presence of chemical substance/in its absence (gene YBR014C): 1.0 | level of expressed mRNA in the presence of chemical substance/in its absence (gene YBR023C): 0.7 | level of expressed mRNA in the presence of chemical substance/in its absence (gene YBR029C): 0.6 | level of expressed mRNA in the presence of chemical substance/in its absence (gene YBR035C): 1.5 | level of expressed mRNA in the presence of chemical substance/in its absence (gene YBR050C): 1.5 | The level of expressed mRNA in the presence of chemical substance/absence: YBR051W (gene YBR051W): 1.1 | The level of expressed mRNA in the presence of chemical substance/absence: YBR063C (gene YBR063C): 1.2 | The level of expressed mRNA in the presence of chemical substance/absence: YBR066C (gene YBR066C): 1.2 | level of expressed mRNA in the presence of chemical substance/in its absence (gene YBR068C): 1.1 | level of expressed mRNA in the presence of chemical substance/in its absence (gene YBR111C): 1.4 | The level of expressed mRNA in the presence of chemical substance/absence: YBR124W (gene YBR124W): 0.9 | The level of expressed mRNA in the presence of chemical substance/absence: YBR129C (gene YBR129C): 1.0 | level of expressed mRNA in the presence of chemical substance/in its absence (gene YBR145W): 1.7 | The level of expressed mRNA in the presence of chemical substance/absence: YBR162C (gene YBR162C): 1.2 | level of expressed mRNA in the presence of chemical substance/in its absence (gene YBR183W): 1.4 | level of expressed mRNA in the presence of chemical substance/in its absence (gene YBR222C): 0.8 | The level of expressed mRNA in the presence of chemical substance/absence: YBR255W (gene YBR255W): 1.0 | The level of expressed mRNA in the presence of chemical substance/absence: YBR281C (gene YBR281C): 0.7 | The level of expressed mRNA in the presence of chemical substance/absence: YBR287W (gene YBR287W): 3.2 | level of expressed mRNA in the presence of chemical substance/in its absence (gene YBR299W): 1.0 | level of expressed mRNA in the presence of chemical substance/in its absence (gene YCL009C): 1.1 | The level of expressed mRNA in the presence of chemical substance/absence: YCL042W (gene YCL042W): 0.8 | The level of expressed mRNA in the presence of chemical substance/absence: YCL044C (gene YCL044C): 0.9 | The level of expressed mRNA in the presence of chemical substance/absence: YCL056C (gene YCL056C): 1.2 | level of expressed mRNA in the presence of chemical substance/in its absence (gene YCL064C): 0.3 | The level of expressed mRNA in the presence of chemical substance/absence: YCR007C (gene YCR007C): 2.6 | level of expressed mRNA in the presence of chemical substance/in its absence (gene YCR037C): 1.4 | level of expressed mRNA in the presence of chemical substance/in its absence (gene YCR048W): 1.2 | level of expressed mRNA in the presence of chemical substance/in its absence (gene YCR098C): 1.7 | level of expressed mRNA in the presence of chemical substance/in its absence (gene YDL022W): 1.0 | The level of expressed mRNA in the presence of chemical substance/absence: YDL046W (gene YDL046W): 1.2 | The level of expressed mRNA in the presence of chemical substance/absence: YDL089W (gene YDL089W): 1.0 | The level of expressed mRNA in the presence of chemical substance/absence: YDL173W (gene YDL173W): 1.3 | The level of expressed mRNA in the presence of chemical substance/absence: YDL193W (gene YDL193W): 0.9 | The level of expressed mRNA in the presence of chemical substance/absence: YDL233W (gene YDL233W): 1.1 | level of expressed mRNA in the presence of chemical substance/in its absence (gene YDR009W): 1.2 | level of expressed mRNA in the presence of chemical substance/in its absence (gene YDR019C): 1.2 | The level of expressed mRNA in the presence of chemical substance/absence: YDR071C (gene YDR071C): 0.9 | The level of expressed mRNA in the presence of chemical substance/absence: YDR078C (gene YDR078C): 0.9 | The level of expressed mRNA in the presence of chemical substance/absence: YDR090C (gene YDR090C): 1.1 | The level of expressed mRNA in the presence of chemical substance/absence: YDR109C (gene YDR109C): 1.2 | The level of expressed mRNA in the presence of chemical substance/absence: YDR128W (gene YDR128W): 0.9 | The level of expressed mRNA in the presence of chemical substance/absence: YDR133C (gene YDR133C): 0.6 | The level of expressed mRNA in the presence of chemical substance/absence: YDR140W (gene YDR140W): 1.3 | The level of expressed mRNA in the presence of chemical substance/absence: YDR221W (gene YDR221W): 1.1 | The level of expressed mRNA in the presence of chemical substance/absence: YDR250C (gene YDR250C): 0.9 | The level of expressed mRNA in the presence of chemical substance/absence: YDR271C (gene YDR271C): 1.2 | The level of expressed mRNA in the presence of chemical substance/absence: YDR278C (gene YDR278C): 0.7 | The level of expressed mRNA in the presence of chemical substance/absence: YDR281C (gene YDR281C): 1.5 | The level of expressed mRNA in the presence of chemical substance/absence: YDR316W (gene YDR316W): 0.6 | The level of expressed mRNA in the presence of chemical substance/absence: YDR338C (gene YDR338C): 0.9 | The level of expressed mRNA in the presence of chemical substance/absence: YDR366C (gene YDR366C): 1.2 | level of expressed mRNA in the presence of chemical substance/in its absence (gene YDR380W): 0.8 | level of expressed mRNA in the presence of chemical substance/in its absence (gene YDR410C): 1.0 | The level of expressed mRNA in the presence of chemical substance/absence: YDR421W (gene YDR421W): 0.7 | The level of expressed mRNA in the presence of chemical substance/absence: YDR425W (gene YDR425W): 1.2 | The level of expressed mRNA in the presence of chemical substance/absence: YDR485C (gene YDR485C): 0.8 | level of expressed mRNA in the presence of chemical substance/in its absence (gene YDR487C): 1.5 | level of expressed mRNA in the presence of chemical substance/in its absence (gene YDR502C): 0.9 | The level of expressed mRNA in the presence of chemical substance/absence: YDR504C (gene YDR504C): 1.2 | level of expressed mRNA in the presence of chemical substance/in its absence (gene YEL011W): 1.4 | level of expressed mRNA in the presence of chemical substance/in its absence (gene YEL020C): 1.2 | The level of expressed mRNA in the presence of chemical substance/absence: YEL044W (gene YEL044W): 1.4 | level of expressed mRNA in the presence of chemical substance/in its absence (gene YER026C): 1.7 | level of expressed mRNA in the presence of chemical substance/in its absence (gene YER069W): 1.1 | The level of expressed mRNA in the presence of chemical substance/absence: YER092W (gene YER092W): 1.4 | The level of expressed mRNA in the presence of chemical substance/absence: YER182W (gene YER182W): 0.8 | The level of expressed mRNA in the presence of chemical substance/absence: YFL042C (gene YFL042C): 1.1 | level of expressed mRNA in the presence of chemical substance/in its absence (gene YFR015C): 1.3 | The level of expressed mRNA in the presence of chemical substance/absence: YFR026C (gene YFR026C): 1.1 | The level of expressed mRNA in the presence of chemical substance/absence: YFR056C (gene YFR056C): 1.1 | level of expressed mRNA in the presence of chemical substance/in its absence (gene YGL001C): 1.9 | level of expressed mRNA in the presence of chemical substance/in its absence (gene YGL022W): 0.9 | level of expressed mRNA in the presence of chemical substance/in its absence (gene YGL039W): 0.6 | The level of expressed mRNA in the presence of chemical substance/absence: YGL041C (gene YGL041C): 1.0 | The level of expressed mRNA in the presence of chemical substance/absence: YGL045W (gene YGL045W): 1.3 | The level of expressed mRNA in the presence of chemical substance/absence: YGL057C (gene YGL057C): 0.9 | The level of expressed mRNA in the presence of chemical substance/absence: YGL088W (gene YGL088W): 0.5
